The test system of data set [1] is 3D7-strain P. falciparum asexual parasites. Description: P. falciparum asexual growth inhibition assay (Pf GIA). It counts as cell-based, Plasmodium falciparum. As to conditions: dose response confirmation; read-out: Pf asexual growth inhibition assays IC50. In short, it runs like this:
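0.25% parasitemia, 2% Hct, RPMI/HEPES/hypoxanthine/5% Albumax; compound dose response, 72 h, 37°C, 5% CO2, 5% O2, 90% N2. Freeze-thaw, then LDH assay, A650. % inhibition vs chloroquine (50 μM)/DMSO, mean of 3 independent runs.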

For another data set, the system named is HepG2 cells. Kind of data set: HepG2 cytotoxicity assay. As to conditions: for IC50: read-out: HepG2 cytotoxicity assay IC50, dose response confirmation; for Pb ODA (this manuscript) HepG2 cytoxicity: HepG2 cytotoxicity listed with the Pb ODA data set (this manuscript). In short, it runs like this: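 Cells are plated at 2,500 per well on compound-treated plates in MEM containing 10% fetal bovine serum and 1% NEAA, then incubated 48 h at 37°C.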

In data set [2] the test system is P. berghei ookinete development. As to conditions: for % inhibition, Replicate A / % inhibition, Replicate B: primary screen at 1 μM.
[3] abbreviates: HepG2 values of the three screens unified.
The mark [4] stands for this setting: read-out: Pb ODA IC50, this manuscript.
Where [5] appears, read: read-out: Pb Ookinete development assay IC50, dose response confirmation.
Where [6] appears, read: read-out: Pb ODA (this manuscript) IC50, P. berghei ookinete development assay, this manuscript.
Setting [7] is: unified HepG2 value across the three screens.

Structures are written as SMILES. Like-named read-outs stand apart in the source and are kept apart here.

A word on the IC50: it is the concentration that gives 50% inhibition.

As for `Nc1nc(N)c2c(ccc3c2ccn3CCCCO)n1` [TCMDC-137959], the IC50 in data set [1] was 61 nM; with HepG2 cells it was 75.9 nM; in data set [2] (setting [4]), 3090 nM; in data set [2] (setting [5]), 3090 nM. In the data set on HepG2 cells, the “HepG2 cytoxicity (Pb ODA, this manuscript)” value came to 0.0759 µM. Besides, the Unified cytotox in the data set on HepG2 cells (setting [3]) is 0.0759 µM. Further, the “Is compound selective in assay? Pb ODA active?” value (shortened to “Is compound selective”) in data set [2] (1: YES, 0: NO) is recorded as 0 (0: NO). For the same compound, the “% inhibition, Replicate A” value in data set [2] turned out to be 70.70%. For the same compound, in data set [2], the “% inhibition, Replicate B” value came out at 40.44%.

Consider `CCCC(C)n1ccc2c3c(N)nc(N)nc3ccc21` (centres unmarked) [TCMDC-137964], for which the IC50 came to 35 nM in data set [1], 30 nM in the data set on HepG2 cells, 4290 nM in data set [2] (setting [4]) and 4290 nM in data set [2] (setting [5]). The “HepG2 cytoxicity (Pb ODA, this manuscript)” value in the data set with HepG2 cells is 0.03 µM. Further, the Unified cytotox with HepG2 cells (setting [3]) turned out to be 0.03 µM. The “Is compound selective” value in data set [2] (1: YES, 0: NO) was 0 (0: NO). In data set [2], the “% inhibition, Replicate A” value stood at 50.53%. In addition, the “% inhibition, Replicate B” value in data set [2] was found to be 51.77%.

For `CC(C)Cn1ncc2c3c(N)nc(N)nc3ccc21` [TCMDC-137970], the IC50 turned out to be 80 nM in data set [1], 110 nM in the data set with HepG2 cells, 1750 nM in data set [2] (setting [6]) and 1750 nM in data set [2] (setting [5]). Moreover, the “Pb ODA (this manuscript) HepG2 cytoxicity” value in the data set on HepG2 cells is 0.11 µM. For the same compound, the “Is compound selective” value in data set [2] was 0 (key: 1: YES; 0: NO). For the same compound, in data set [2], the “% inhibition, Replicate A” value is 76.14%. The “% inhibition, Replicate B” value in data set [2] came out at 41.76%.

As to `CN(C)S(=O)(=O)n1ccc2c3c(N)nc(N)nc3ccc21` [TCMDC-137973], the IC50 in data set [1] turned out to be 6 nM. For the same compound, in the data set on HepG2 cells, the “Pb ODA (this manuscript) HepG2 cytoxicity” value is given as 0.0017 µM and the IC50 turned out to be 1.7 nM. Moreover, in data set [2], the “Is compound selective” value is 0 (key: 1: YES; 0: NO); the “% inhibition, Replicate A” value is listed as 72.90%; the “% inhibition, Replicate B” value is 52.14%. Besides, the IC50 in data set [2] (setting [6]) was found to be 1270 nM. In addition, the IC50 in data set [2] (setting [5]) amounted to 1270 nM.

On to `Nc1nc(N)c2c(ccc3c2ccn3Cc2ccccn2)n1` [TCMDC-137980], for which the IC50 in data set [1] was 1.15 nM. In the data set on HepG2 cells, the “HepG2 cytoxicity (Pb ODA, this manuscript)” value was 0.00767 µM and the IC50 is 7.67 nM. Besides, the Unified cytotox with HepG2 cells (setting [3]) turned out to be 0.00767 µM. In addition, the “Is compound selective” value in data set [2] (1: YES, 0: NO) is reported as 0 (0: NO). Besides, in data set [2], the “% inhibition, Replicate A” value was 50.19% and the “% inhibition, Replicate B” value is listed as 73.34%. The IC50 in data set [2] (setting [5]) was found to be 2430 nM.

Take `C=CCn1ccc2c3c(N)nc(N)nc3ccc21` [TCMDC-137995]: the IC50 amounted to 24 nM in data set [1], 1000 nM in the data set with HepG2 cells, 2480 nM in data set [2] (setting [4]) and 2480 nM in data set [2] (setting [5]). Also, in the data set on HepG2 cells, the “HepG2 cytoxicity (Pb ODA, this manuscript)” value was determined as 1.00 µM. In the data set on HepG2 cells (setting [3]), the Unified cytotox is given as 1.00 µM. The “Is compound selective” value in data set [2] (1: YES, 0: NO) is recorded as 0 (0: NO). Further, the “% inhibition, Replicate A” value in data set [2] is reported as 75.02%. Moreover, the “% inhibition, Replicate B” value in data set [2] was 69.00%.

As to `Nc1nc(N)c2c(ccc3c2ccn3Cc2cccc3ccccc23)n1` [TCMDC-137996], the IC50 in data set [1] worked out at 151 nM; in the data set with HepG2 cells, 1.7 nM; in data set [2] (setting [4]), 5760 nM; in data set [2] (setting [5]), 5760 nM. In addition, the “HepG2 cytoxicity (Pb ODA, this manuscript)” value in the data set with HepG2 cells was 0.0017 µM. In the data set on HepG2 cells (setting [3]), this compound displayed a Unified cytotox of 0.0017 µM. Further, in data set [2] (1: YES, 0: NO), the “Is compound selective” value was 0 (0: NO). For the same compound, in data set [2], the “% inhibition, Replicate A” value amounted to 55.22%. Also, in data set [2], the “% inhibition, Replicate B” value came out at 70.48%.

On to `CC(C)Cn1ccc2c3c(N)nc(N)nc3ccc21` [TCMDC-137997], for which the IC50 in data set [1] is 19 nM; in the data set on HepG2 cells it was 250 nM; in data set [2] (setting [4]), 1400 nM; in data set [2] (setting [5]), 1400 nM. The “HepG2 cytoxicity (Pb ODA, this manuscript)” value with HepG2 cells is listed as 0.25 µM. Moreover, the Unified cytotox in the data set with HepG2 cells (setting [3]) is listed as 0.25 µM. Moreover, the “Is compound selective” value in data set [2] (1: YES, 0: NO) is given as 0 (0: NO). In addition, the “% inhibition, Replicate A” value in data set [2] is on record as 52.84%. Also, the “% inhibition, Replicate B” value in data set [2] turned out to be 64.75%.

Consider `CCCCCCc1c(C)nc2cc(OC)ccc2c1O` [TCMDC-138010], for which the IC50 in data set [1] is 163 nM; in the data set on HepG2 cells it was 100000 nM; in data set [2] (setting [6]) it was 80 nM; in data set [2] (setting [5]), 81 nM. The “Pb ODA (this manuscript) HepG2 cytoxicity” value in the data set with HepG2 cells is 100.00 µM. Also, the “Is compound selective” value in data set [2] was 1 (key: 1: YES; 0: NO). Besides, the “% inhibition, Replicate A” value in data set [2] was 110.05%. In data set [2], the “% inhibition, Replicate B” value is given as 119.15%.

Take `CCCCCCCc1c(C)nc2cccc(OC)c2c1O` [TCMDC-138014]: the IC50 in data set [1] was found to be 1990 nM. Moreover, in the data set with HepG2 cells, the “Pb ODA (this manuscript) HepG2 cytoxicity” value amounted to 5.50 µM and the IC50 worked out at 5500 nM. Also, in data set [2], the “Is compound selective” value is 0 (key: 1: YES; 0: NO); the “% inhibition, Replicate A” value came to 63.12%; the “% inhibition, Replicate B” value worked out at 36.77%. The IC50 in data set [2] (setting [6]) worked out at 1150 nM. Further, in data set [2] (setting [5]), the IC50 was 1140 nM.

Take `CCCCCCCc1c(C)nc2c(OC)cccc2c1O` [TCMDC-138016]: the IC50 in data set [1] was 195 nM. In the data set with HepG2 cells, the “Pb ODA (this manuscript) HepG2 cytoxicity” value was determined as 100.00 µM and the IC50 worked out at 100000 nM. For the same compound, in data set [2], the “Is compound selective” value is on record as 1 (key: 1: YES; 0: NO); the “% inhibition, Replicate A” value was determined as 91.04%; the “% inhibition, Replicate B” value was found to be 66.93%. For the same compound, the IC50 in data set [2] (setting [6]) is 530 nM. Moreover, the IC50 in data set [2] (setting [5]) was determined as 529 nM.

`CCC(CC)n1cc2c(ccc3nc(N)nc(N)c32)n1` [TCMDC-138019]: the IC50 in data set [1] is 60 nM. For the same compound, in the data set on HepG2 cells, the “Pb ODA (this manuscript) HepG2 cytoxicity” value turned out to be 0.0017 µM and the IC50 amounted to 1.7 nM. Also, in data set [2], the “Is compound selective” value is 0 (key: 1: YES; 0: NO); the “% inhibition, Replicate A” value is 5.46%; the “% inhibition, Replicate B” value worked out at 62.28%. The IC50 in data set [2] (setting [6]) is 8220 nM. The IC50 in data set [2] (setting [5]) came out at 8220 nM.

On to `COc1ccc(Cc2c(N)nc3nc(N)nc(N)c3c2C)cc1.Cl` [TCMDC-138061], for which the IC50 in data set [1] turned out to be 142 nM. Moreover, in the data set with HepG2 cells, the “Pb ODA (this manuscript) HepG2 cytoxicity” value came to 0.055 µM and the IC50 turned out to be 55 nM. In addition, in data set [2], the “Is compound selective” value was 0 (key: 1: YES; 0: NO); the “% inhibition, Replicate A” value is listed as -0.33%; the “% inhibition, Replicate B” value is 51.34%. Further, in data set [2] (setting [6]), the IC50 stood at 5180 nM. Besides, in data set [2] (setting [5]), the IC50 worked out at 5180 nM.

As for `COc1ccc(-c2nc3c(N)nc(N)nc3nc2-c2ccccc2Cl)cc1.COc1ccc(-c2nc3nc(N)nc(N)c3nc2-c2ccccc2Cl)cc1.Cl` [TCMDC-138100], the IC50 in data set [1] turned out to be 1550 nM; in the data set on HepG2 cells it was 73300 nM; in data set [2] (setting [4]), 8260 nM; in data set [2] (setting [5]), 8260 nM. In addition, in the data set on HepG2 cells (setting [7]), the “Unified cytotox” value is on record as 73.28 µM. The “Is compound selective” value in data set [2] (1: YES, 0: NO) is 0 (0: NO). For the same compound, the “% inhibition, Replicate A” value in data set [2] is 50.02%. In data set [2], the “% inhibition, Replicate B” value was determined as 33.60%.

In the case of `CC(O)C(C)(CO)NCc1ccc2c3c(cccc13)-c1ccccc1-2.Cl` (centres unmarked) [TCMDC-138117], the concentration for half-maximal inhibition (IC50) amounted to 490 nM in data set [1], 4470 nM in the data set with HepG2 cells, 610 nM in data set [2] (setting [4]) and 608 nM in data set [2] (setting [5]). Besides, the “Unified cytotox” value in the data set with HepG2 cells (setting [7]) was 4.47 µM. Moreover, the “Is compound selective” value in data set [2] (1: YES, 0: NO) is 0 (0: NO). Also, in data set [2], the “% inhibition, Replicate A” value was 18.85%. In data set [2], the “% inhibition, Replicate B” value is 67.10%.

(Values after article PMC6753678, “Fueling Open Innovation for Malaria Transmission-Blocking Drugs: Hundreds of Molecules Targeting Early Parasite Mosquito Stages” (Frontiers in Microbiology, 2019).)
